Values of other authors, collected in patent EP0972007B1, “DETERGENT COMPOSITIONS” (UNILEVER PLC, priority 1997, dated 1998).

Conditions: for Water Solubility (g/100g): grams of solid to form a saturated solution in 100 grams of water at 20°C

Compound	solubility in water (at 20°C)	Water Solubility (g/100g)
NC(N)=O [Urea]	exceeding 100 gms per 100ml water	>100
O=BO[O-].[Na+] [Sodium perborate anhydrous]		3.7
O=P(O)(O)OP(=O)(O)OP(=O)(O)O [Sodium tripolyphosphate anhydrous]		15
